Active and inactive are the calls of the source. The rule behind the calls is not given here.

This assay has as its target T1, Vitamin D3 receptor (Homo sapiens) (UniProt P11473).
T1 sequence (whole entry): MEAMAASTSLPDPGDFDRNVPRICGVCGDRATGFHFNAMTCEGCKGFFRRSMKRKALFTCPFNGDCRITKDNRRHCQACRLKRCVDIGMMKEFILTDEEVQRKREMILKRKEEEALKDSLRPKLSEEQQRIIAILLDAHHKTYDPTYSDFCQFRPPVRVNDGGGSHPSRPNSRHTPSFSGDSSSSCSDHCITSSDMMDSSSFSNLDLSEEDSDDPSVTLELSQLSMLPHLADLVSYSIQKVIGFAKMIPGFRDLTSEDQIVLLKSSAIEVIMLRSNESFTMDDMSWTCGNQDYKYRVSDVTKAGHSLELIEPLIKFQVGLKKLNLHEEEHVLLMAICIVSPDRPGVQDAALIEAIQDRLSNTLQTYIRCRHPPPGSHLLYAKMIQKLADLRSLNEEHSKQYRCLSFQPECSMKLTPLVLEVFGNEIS
Nature of the assay: Enhancement of VDR mediated transcriptional activity in human MCF7 cells. Type of assay: cell-based.
In the case of `C=C1/C(=C\C=C2/CCC[C@]3(C)[C@@H]([C@H](C)CCCC(C)(C)O)CC[C@@H]23)C[C@@H](O)[C@H](CCCO)[C@@H]1O`, the outcome was Active.

For the molecule `C=C1/C(=C\C=C2/CCC[C@]3(C)[C@@H]([C@H](C)CCCC(C)(C)O)CC[C@@H]23)C[C@@H](O)[C@H](CCCO)[C@@H]1CO`, the result was Active. As for `C=C1/C(=C\C=C2/CCC[C@]3(C)[C@@H]([C@H](C)CCCC(C)(C)O)CC[C@@H]23)C[C@@H](O)[C@H](CCCO)[C@H]1CO`, the result was Active. As for `C=C1C[C@@H](CCCO)[C@H](O)C/C1=C/C=C1\CCC[C@]2(C)[C@@H]([C@H](C)CCCC(C)(C)O)CC[C@@H]12`, the entry is “Active”.

These data come from ChEMBL document CHEMBL1143991, “The 2alpha-(3-hydroxypropyl) group as an active motif in vitamin D3 analogues as agonists of the mutant vitamin D receptor (Arg274Leu)” (Bioorg Med Chem, 2008).
